Source: patent US6380181B1, “Synthetic catechol derivatives, method for production and use thereof” (priority 1996, dated 2002)
Converted amounts (≈) assume the structure as drawn.

Key:
Type in all cases: cell-based
[1] = system: E. coli AB2847 tonB+
[2] = system: Pseudomonas aeruginosa ATCC 9027 (wild type); test: Agar diffusion test; conditions: concentration 100 μg/ml; P. aeruginosa ATCC 9027
[3] = system: Stenotrophomonas maltophilia GN 12873; test: Microdilution test (MIC); conditions: GN12873
[4] = system: Pseudomonas aeruginosa KW 799 WT (wild type); test: Agar diffusion test; conditions: concentration 100 μg/ml; P. aeruginosa KW799/WT
[5] = system: Pseudomonas aeruginosa NCTC 10662; test: Agar diffusion test; conditions: concentration 100 μg/ml; P. aeruginosa NCTC 10662
[6] = system: Klebsiella pneumoniae ATCC 10031; test: Agar diffusion test; conditions: concentration 100 μg/ml
[7] = system: E. coli DC0 (wild type); test: Agar diffusion test; conditions: concentration 100 μg/ml
[8] = system: Stenotrophomonas maltophilia GN 12873; test: Agar diffusion test; conditions: concentration 100 μg/ml
[9] = system: E. coli mutant BR185 tonB−
[10] = system: Pseudomonas aeruginosa KW 799/61; test: Microdilution test (MIC); conditions: Pseudomonas aeruginosa, KW799/61; P. aeruginosa KW 799/61
Method in brief: (§1)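 Broth microdilution MIC determination; paired strains (Pseudomonas KW 799 WT vs /61, E. coli DC0 vs DC2) used to assess the effect of improved penetration capacity on compound efficacy.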

[11] = system: E. coli DC0; test: Microdilution test (MIC); conditions: Escherichia coli, DC0, read-out: MIC values, microdilution test
Method in brief: as §1

[12] = system: Pseudomonas aeruginosa KW 799 WT; test: Microdilution test (MIC); conditions: Pseudomonas aeruginosa, KW799WT; P. aeruginosa KW 799/WT
Method in brief: as §1

[13] = system: Klebsiella pneumoniae SG 117; test: Agar diffusion test; conditions: concentration 100 μg/ml
[14] = system: E. coli DC2 (penetration mutant); conditions: concentration 100 μg/ml
[15] = system: Pseudomonas aeruginosa KW 799/61 (penetration mutant); conditions: concentration 100 μg/ml; P. aeruginosa KW799/61
[16] = system: Salmonella gallinarum ATCC 9184; test: microbe, parasite or virus in culture; conditions: Salmonella enterica; Salmonella gallinarum ATCC9184; read-out: MIC values, microdilution test
Procedure: (§2) The minimum inhibiting concentrations (MICs) were determined for the following bacterial strains: Pseudomonas aeruginosa NCTC 10701, NCTC 10662, SG 137, ATCC 27853, KW 799 WT and KW 799/61, E. coli DCO, DC2 and ATCC 25922, Serratia marcescens SG 621; Salmonella gallinarum ATCC 9184, Klebsiella pneumoniae ATCC 10031 and SG 117.

[17] = system: Salmonella gallinarum ATCC 9184; conditions: concentration 100 μg/ml; Salmonella galinarum ATCC 9184
[18] = system: Pseudomonas aeruginosa NCTC 10662; test: Microdilution test (MIC); conditions: Pseudomonas aeruginosa, NCTC10662; P. aeruginosa NCTC 10662
Procedure: as §2

[19] = system: Klebsiella pneumoniae ATCC 10031; test: Microdilution test (MIC); conditions: ATCC10031
Procedure: as §2

[20] = system: Serratia marcescens SG 621; test: Microdilution test (MIC); conditions: SG621
Procedure: as §2

[21] = system: E. coli ATCC 25922; test: Microdilution test (MIC); conditions: Escherichia coli, ATCC25922
Procedure: as §2

[22] = system: Pseudomonas aeruginosa NCTC 10701; test: Microdilution test (MIC); conditions: Pseudomonas aeruginosa, NCTC10701; P. aeruginosa NCTC 10701
Procedure: as §2

[23] = system: Pseudomonas aeruginosa ATCC 27853; test: Microdilution test (MIC); conditions: Pseudomonas aeruginosa, ATCC27853; P. aeruginosa ATCC 27853
Procedure: as §2

[24] = system: Pseudomonas aeruginosa SG 137; test: Microdilution test (MIC); conditions: Pseudomonas aeruginosa, SG137; P. aeruginosa SG 137
Procedure: as §2

[25] = system: Klebsiella pneumoniae SG 117; test: Microdilution test (MIC); conditions: SG117
Procedure: as §2

[26] = system: Pseudomonas aeruginosa Oxa6 (plasmid-coded β-lactamase); conditions: concentration 100 μg/ml; P. aeruginosa OXA 6
[27] = system: E. coli DC2; test: microbe, parasite or virus in culture; conditions: Escherichia coli, read-out: MIC values, microdilution test
Method in brief: as §1

[28] = system: E. coli mutant KB4 ompF−
Source text: (§3) The efficacy against β-lactamase formers and against multi-resistant germs is therefore due to a new type of mechanism for overcoming the penetration resistance, by means of which the ratio of active ingredient to enzyme in the bacterial cell is influenced so that not all antibiotic molecules are inactivated before they reach their target.

[29] = system: E. coli mutant KB5 ompC−
Source text: as §3

[30] = system: E. coli mutant PLB3268 ompF++; conditions: E. coli mutant PLB3268 ompF++ (ompF super-expressed)
Source text: as §3
PLB268: ompF- was super-expressed.

[31] = system: Pseudomonas aeruginosa NPS1 (plasmid-coded β-lactamase); conditions: concentration 100 μg/ml; P. aeruginosa NPS 1
[32] = system: Stenotrophomonas maltophilia IMET 10402; test: Agar diffusion test; conditions: concentration 100 μg/ml
[33] = system: Pseudomonas aeruginosa SG 137 (carbenicillin-resistant); test: Agar diffusion test; conditions: concentration 100 μg/ml; P. aeruginosa SG 137
[34] = system: Pseudomonas aeruginosa ATCC 27853 (wild type); test: Agar diffusion test; conditions: concentration 100 μg/ml; P. aeruginosa ATCC 27853
[35] = system: Pseudomonas aeruginosa NCTC 10701; test: Agar diffusion test; conditions: concentration 100 μg/ml; P. aeruginosa NCTC 10701

CC1(C)S[C@@H]2[C@H](NC(=O)[C@H](NC(=O)N3CCNC3=O)c3ccccc3)C(=O)N2[C@H]1C(=O)O [Azlocillin, reference compound]
inhibition spot diameter in agar diffusion test [1]: 8 mm | inhibition spot diameter in the agar diffusion test [2]: 15 mm | MIC [3]: 25 to 100 µg/mL (≈ 54.2 to 217 µM) | inhibition spot diameter in the agar diffusion test [4]: 27 mm | inhibition spot diameter in the agar diffusion test [5]: 17 mm | inhibition spot diameter in the agar diffusion test [6]: 15 mm | inhibition spot diameter in the agar diffusion test [7]: 16 mm | inhibition spot diameter in the agar diffusion test [8]: 0 mm | inhibition spot diameter in agar diffusion test [9]: 8 mm | MIC [10]: 0.2 µg/mL (≈ 0.433 µM) | MIC [11]: 12.5 µg/mL (≈ 27.1 µM) | MIC [12]: 3.12 µg/mL (≈ 6.76 µM) | inhibition spot diameter in the agar diffusion test [13]: 18 mm | inhibition spot diameter in the agar diffusion test [14]: 33 mm | inhibition spot diameter in the agar diffusion test [15]: 40 mm | MIC [16]: 3.12 µg/mL (≈ 6.76 µM) | inhibition spot diameter in the agar diffusion test [17]: 21 mm | MIC [18]: 6.25 µg/mL (≈ 13.5 µM) | MIC [19]: 6.25 µg/mL (≈ 13.5 µM) | MIC [20]: 50 µg/mL (≈ 108 µM) | MIC [21]: 6.25 µg/mL (≈ 13.5 µM) | MIC [22]: 0.2 µg/mL (≈ 0.433 µM) | MIC [23]: 6.25 µg/mL (≈ 13.5 µM) | MIC [24]: 6.25 µg/mL (≈ 13.5 µM) | MIC [25]: 6.25 µg/mL (≈ 13.5 µM) | inhibition spot diameter in the agar diffusion test [26]: 0 mm | MIC [27]: 0.78 µg/mL (≈ 1.69 µM) | inhibition spot diameter in agar diffusion test [28]: 6.5 mm | inhibition spot diameter in agar diffusion test [29]: 4 mm | inhibition spot diameter in agar diffusion test [30]: 17.5 mm | inhibition spot diameter in the agar diffusion test [31]: 0 mm | inhibition spot diameter in the agar diffusion test [32]: 21 mm | inhibition spot diameter in the agar diffusion test [33]: 17 mm | inhibition spot diameter in the agar diffusion test [34]: 19 mm | inhibition spot diameter in the agar diffusion test [35]: 27 mm
